This is an account of results in patent US20100062987A1, “ANTICONVULSIVE PHARMACEUTICAL COMPOSITIONS” (INSERM (Institut National de la Sante et de la Recherche …, priority 2006, published 2010).

The structures appear in SMILES notation.

The test system of data set [1] is BALB/c mice. Nature of the data set: Retinal histology / immunolabelling of VGB-treated mice. The following applies: VGB 250 mg/kg i.p. daily for 30 days. It counts as in vivo. How it is done: (§1) BALB/c mice (16 treated, 10 controls) were purchased from Janvier (Le Genest-St-lsle, France) at six weeks. VGB dissolved in 0.9%
(§2) NaCl at 100 mg/m1 was intraperitoneally injected daily for 30 days at a final concentration of 250 mg/kg as described for animal treatment of epilepsy (Andre V, Ferrandon A, Marescaux C, Nehlig A. Vigabatrin protects against hippocampal damage but is not antiepileptogenic in the lithium-pilocarpine model of temporal lobe epilepsy. Epilepsy Res. 2001;47:99-117). This dose was slightly higher than that prescribed to adult patient ([…]), children (100 mg/kg), or infants ([…]) (Bialer M, Johannessen S I, Kupferberg H J et al. Progress report on new antiepileptic drugs: a summary of the Fifth Eilat Conference (EILAT V). Epilepsy Res. 2001;43:11-58).
(§3) Eye cups were fixed overnight at 4° C. in 4% (wt/vol) paraformaldehyde in phosphate buffered saline (PBS) 0.01 M, pH 7.4. After cryoprotection in PBS containing successively 10%, 20% and 30% sucrose at 4° C., the tissue was embedded in OCT (Labonord, Villeneuve d'Ascq, France). Vertical sections (8-10 μm thickness) were permeabilized for 5 minutes in PBS containing 0.1% Triton X-100 (Sigma, St. Louis, Mo.), rinsed, and incubated in PBS containing 1% bovine serum albumin (Eurobio, Les-Ulis, France), 0.1% Tween 20 (Sigma), and 0.1% sodium azide (Merck, Fontenay-Sous-Bois, France) for 2 hours at room temperature. The primary antibody added to the solution was incubated for 2 hours at room temperature. The polycolonal antibodies were directed against the protein kinase C alpha (PKCα) (1:2000, Sigma), VGluT1 (1:2000, Chemicon), Goα (K-20; 1:100, Santa Cruz), calbindin D-28K (1:500, Chemicon), mouse cone arrestin/ Luminaire junior (LUMIj) (1:20,000, ^27). The monoclonal antibodies were directed against Goα (1:2000, Chemicon), bassoon (1:100, StressGen) and calbindin D-28K (1:500, Sigma). After rinses, sections were incubated with the secondary antibody, goat anti-rabbit IgG or rabbit anti-mouse IgG conjugated to either Alexa TM594 or Alexa TM488 (1:500, Molecular Probes, Eugene, Oreg.) for 2 hours. The dye, diamidiphenyl-indole (DAPI) was added to the last incubated solutions. Sections were rinsed, mounted with Fluorsave reagent (Calbiochem, San Diege, Calif.) and viewed with a Leica microscope (LEICA DM 5000B) equipped with a Ropper scientific camera (Photometrics cool SNAP TM FX).

The test system of data set [2] is BALB/c mice. Nature of the data set: Light dependence of the vigabatrin-elicited retinal toxicity (darkness vs 12h light/dark cycle). It counts as in vivo. How it is done:
as §1, §2, §3
Albino rats only are sensitive to the VGB-elicited retinal toxicity (Butler W H, Ford G P, Newberne J W. A study of the effects of vigabatrin on the central nervous system and retina of Sprague Dawley and Lister-Hooded rats. Toxicol Pathol. 1987;15:143-148). […]

In data set [3] the test system is patients. The following applies: patients under therapeutical treatment; cited from earlier work.
Data set [4] deals with rats. The following applies: cited from earlier work.
[5] abbreviates: animals maintained in a dark room throughout the treatment.

Take `C=CC(N)CCC(=O)O` (stereo not shown) [VGB, 4-amino-5-hexenoic acid]: the “Areas with a highly disorganized outer nuclear layer (ONL), animals affected” value in data set [1] (albino mice) was 5 of 16. Moreover, in data set [1] (mice), the “Cone photoreceptor terminals, cone arrestin and Goα immunolabelling” value is on record as “cone terminals remained in the OPL”; the “Cone photoreceptors, cone arrestin immunolabelling” value is reported as “cone outer segments had disappeared”; the “Contact of rod photoreceptor terminals with postsynaptic neurons, VGLUT1/Goα and bassoon/PKCα double immunolabelling” value is recorded as “a few synaptic ribbons were not contacted by a rod bipolar cell dendrite”; the “Horizontal cell dendrites, calbindin immunolabelling” value is listed as “horizontal cells extended their dendrites deep into the ONL”. Further, in data set [1] (mice), the “ON bipolar cell dendrites, Goα immunolabelling” value was “extended their dendrites deep into the ONL”; the “Photoreceptor synaptic ribbon, bassoon immunolabelling” value was “punctuate labelling was observed to penetrate deep into the ONL”; the “Photoreceptor synaptic vesicles, VGLUT1 immunolabelling” value is “observed deep into the ONL”; the “Rod and cone ON bipolar cell plasticity, PKCα and Goα double immunolabelling” value was “both rod and cone ON bipolar cells underwent plasticity”. Further, in data set [1] (mice, vs control albino mice), the “GFAP staining of glial Muller cells” value is “not increased”. Also, in data set [2] (setting [5]), the “Bipolar cell dendritic growth in the ONL” value was “found not to grow dendrites in the ONL” and the “Photoreceptor terminal withdrawal in the ONL” value is given as “did not retract their terminals in the ONL”. Besides, the “Other retinal damages like ONL disorganization” value in data set [2] (animals maintained in darkness) is “not observed”. Also, the “Bipolar cell dendritic growth and photoreceptor terminal withdrawal” value in data set [2] (animals under the 12h light/dark cycle) is “showed the bipolar cell dendritic growth and the photoreceptor terminal withdrawal”. In data set [3], the “Undesirable effects on vision” value is “irreversible constriction of the visual field”. For the same compound, in data set [4], the Major retinal changes entry was “retinal architecture disorganization, a major glial reaction, cone damages and photoreceptor apoptosis”.
